# Data from patent US7790753B2, “Derivatives of N-[phenyl(alkylpiperidine-2-yl)methyl]benzamide, preparation method thereof and application of same in therapeutics” (sanofi-aventis, priority 2003, dated 2010).
# Where a name gives a salt, the structure may show the parent alone.
# Columns and labels:
# [1] = target: T1, native human transporter glyt1 (Homo sapiens, UniProt P48067); assay: Glycine transportation ([14C]glycine uptake) in SK-N-MC cells expressing the native human transporter glyt1; format: cell-based; conditions: 10 μM [14C]glycine, 10 minutes at 37° C., read-out: IC50, concentration of compound that reduces by 50% the specific uptake of glycine
# T1 construct: SK-N-MC cells (human neuroepithelial cells) expressing the native human transporter glyt1; endogenous in cells; host or cells: SK-N-MC cells (human neuroepithelial cells)
# T1 sequence (P48067 1-706): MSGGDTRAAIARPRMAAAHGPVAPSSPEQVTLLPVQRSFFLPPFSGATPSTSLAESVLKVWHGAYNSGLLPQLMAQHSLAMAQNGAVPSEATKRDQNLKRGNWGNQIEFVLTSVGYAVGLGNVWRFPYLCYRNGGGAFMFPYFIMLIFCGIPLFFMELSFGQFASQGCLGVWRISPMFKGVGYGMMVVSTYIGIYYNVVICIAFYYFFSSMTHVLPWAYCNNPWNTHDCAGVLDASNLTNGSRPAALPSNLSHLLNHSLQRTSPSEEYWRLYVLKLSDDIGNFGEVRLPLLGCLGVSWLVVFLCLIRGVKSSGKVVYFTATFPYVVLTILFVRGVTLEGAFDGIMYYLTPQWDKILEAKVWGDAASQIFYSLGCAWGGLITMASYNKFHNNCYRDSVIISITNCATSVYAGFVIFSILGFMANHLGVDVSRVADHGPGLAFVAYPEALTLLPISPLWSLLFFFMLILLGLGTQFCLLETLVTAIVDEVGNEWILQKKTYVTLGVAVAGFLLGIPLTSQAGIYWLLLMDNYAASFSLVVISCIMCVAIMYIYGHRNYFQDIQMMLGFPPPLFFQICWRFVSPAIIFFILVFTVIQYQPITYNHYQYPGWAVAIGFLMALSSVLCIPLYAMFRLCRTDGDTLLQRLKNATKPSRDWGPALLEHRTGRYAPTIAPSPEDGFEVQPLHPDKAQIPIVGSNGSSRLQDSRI
# Description: Study of Glycine Transportation in SK-N-MC Cells Expressing the Native Human Transporter glyt1
# The uptake of [^14C]glycine is studied in SK-N-MC cells (human neuroepithelial cells) expressing the native human transporter glyt1 by measuring the radioactivity incorporated in the presence or absence of the test compound. The cells are cultured as a monolayer for 48 hours in plates pretreated with 0.02% fibronectin. On the day of the experiment, the culture medium is removed and the cells are washed with Krebs-HEPES buffer ([4-(2-hydroxyethyl)-1-piperazineethanesulfonic acid) at pH 7.4. After preincubation for 10 minutes at 37° C. in the presence either of buffer (control batch) or of test compound at various concentrations or of 10 mM glycine (determination of the nonspecific uptake), 10 μM of [^14C]glycine (specific activity 112 mCi/mmol) are then added.
# Incubation is continued for 10 minutes at 37° C., and the reaction is quenched by washing twice with pH 7.4 Krebs-HEPES buffer. The radioactivity incorporated by the cells is then estimated after adding 100 μl of liquid scintillant and stirring for 1 hour. Counting is performed on a Microbeta Tri-Lux™ counter. The efficacy of the compound is determined by means of the IC50, which is the concentration of compound that reduces by 50% the specific uptake of glycine, defined by the difference in radioactivity incorporated by the control batch and the batch that received 10 mM of glycine.
# transporter glyt2 = target: T2, transporter glyt2 (Mus musculus, UniProt Q761V0); assay: Glycine transportation ([14C]glycine uptake) in mouse spinal cord homogenate; format: biochemical; conditions: 10 μM [14C]glycine, 10 minutes at 25° C., read-out: IC50, concentration capable of reducing by 50% the specific uptake of glycine
# T2 construct: from tissue; host or cells: spinal cord of male OF1 Iffa Credo mice
# T2 sequence (Q761V0 1-799): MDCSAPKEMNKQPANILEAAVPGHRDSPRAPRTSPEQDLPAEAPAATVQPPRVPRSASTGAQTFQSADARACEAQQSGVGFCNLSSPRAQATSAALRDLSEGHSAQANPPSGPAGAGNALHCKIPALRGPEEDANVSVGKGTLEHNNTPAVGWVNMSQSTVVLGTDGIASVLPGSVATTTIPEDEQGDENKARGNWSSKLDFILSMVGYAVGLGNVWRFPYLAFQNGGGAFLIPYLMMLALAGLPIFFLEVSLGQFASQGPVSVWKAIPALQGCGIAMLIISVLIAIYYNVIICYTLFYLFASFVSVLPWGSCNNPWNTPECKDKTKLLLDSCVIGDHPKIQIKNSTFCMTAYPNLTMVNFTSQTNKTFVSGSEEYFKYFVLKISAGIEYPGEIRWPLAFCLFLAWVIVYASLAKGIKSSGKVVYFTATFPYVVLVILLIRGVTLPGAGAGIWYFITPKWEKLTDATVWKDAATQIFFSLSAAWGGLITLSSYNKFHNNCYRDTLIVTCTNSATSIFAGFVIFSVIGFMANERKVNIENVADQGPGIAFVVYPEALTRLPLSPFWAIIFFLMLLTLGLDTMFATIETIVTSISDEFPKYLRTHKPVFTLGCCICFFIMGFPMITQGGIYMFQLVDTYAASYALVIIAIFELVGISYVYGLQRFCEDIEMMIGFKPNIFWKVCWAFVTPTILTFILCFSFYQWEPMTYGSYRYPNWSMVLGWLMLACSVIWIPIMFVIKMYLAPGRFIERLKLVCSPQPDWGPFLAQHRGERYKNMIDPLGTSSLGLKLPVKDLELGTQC
# From the text: Study of the Glycine Transportation in Mouse Spinal Cord Homogenate
# The uptake of [^14C]glycine by the transporter glyt2 is studied in mouse spinal cord homogenate by measuring the radioactivity incorporated in the presence or absence of test compound.
# After euthanizing the animals (male OF1 Iffa Credo mice weighing 20 to 25 g on the day of the experiment), the spinal cord of each animal is rapidly removed, weighed and stored on ice. The samples are homogenized in pH 7.4 Krebs-HEPES buffer ([4-(2-hydroxyethyl)-1-piperazineethanesulfonic acid), in a proportion of 25 ml/g of tissue.
# 50 μl of homogenate are preincubated for 10 minutes at 25° C. in the presence of pH 7.4 Krebs-HEPES buffer and of test compound at various concentrations, or of 10 mM of glycine to determine the nonspecific uptake. [^14C]glycine (specific activity=112 mCi/mmol) is then added over 10 minutes at 25° C. to a final concentration of 10 μM. The reaction is quenched by vacuum filtration and the radioactivity is estimated by solid scintillation by counting on a Microbeta Tri-Lux™ counter. The efficacy of the compound is determined by means of the IC50, the concentration capable of reducing by 50% the specific uptake of glycine, defined by the difference in radioactivity incorporated by the control batch and the batch that received 10 mM of glycine.
SMILES,IC50 [1] [nM],IC50 (transporter glyt2) [nM]
"CC1CCC(C(NC(=O)c2cccc(C(F)(F)F)c2Cl)c2ccc(F)cc2)N(C)C1 (stereo not drawn) [Compound 5, Trans-threo-2-chloro-N-[(1,5-dimethyl-2-piperidyl)(4-fluorophenyl)methyl]-3-(trifluoromethyl)benzamide hydrochloride 1:1]",100,
"CC1CCCC(C(NC(=O)c2cccc(C(F)(F)F)c2Cl)c2ccccc2)N1C (stereo not drawn) [Compound 1, Cis-threo-2-chloro-N-[(1,6-dimethyl-2-piperidyl)(phenyl)methyl]-3-(trifluoromethyl)benzamide hydrochloride 1:1]",510,120
"CC1CCN(C)C(C(NC(=O)c2cccc(C(F)(F)F)c2Cl)c2ccccc2)C1 (stereo not drawn) [Compound 9, Cis-threo-2-chloro-N-[(1,4-dimethyl-2-piperidyl)(phenyl)methyl]-3-(trifluoromethyl)benzamide hydrochloride 1:1]",90,70
"CN1CCCCC1(C)C(NC(=O)c1cccc(C(F)(F)F)c1Cl)c1ccccc1 (stereo not drawn) [Compound 10, Threo-2-chloro-N-[(1,2-dimethyl-2-piperidyl)(phenyl)methyl]-3-(trifluoromethyl)benzamide hydrochloride 1:1]",8,
